# ± gives the expanded uncertainty stated by the source.
# Conditions: Crystal
Normal melting temperature (DTA) [°C],Normal melting temperature (visual observation) [°C],Structure (SMILES)
123.83 ± 2,–,Oc1ccc2ccccc2c1 [2-hydroxynaphthalene]
–,97.39 ± 2,Oc1cccc2ccccc12 [1-naphthol]
